Laboratory results from publication PMC8482776 (ACS Omega, 2021).
Converted amounts (≈) assume the structure as drawn.

Columns and labels:
C. albicans (ATCC 10231) = assay: Microdilution MIC90, strain A; type: cell-based; conditions: 24 h, strain A, yeast, 24 h at 37 °C, triplicate
C. glabrata (ATCC 90030) = assay: Microdilution MIC90, strain C; type: cell-based; conditions: 24 h, yeast, 24 h at 37 °C, triplicate
[1] = test system: C. parapsilosis (ATCC 22019); assay: Microdilution MIC90, strain D; type: cell-based; conditions: 24 h
[2] = test system: C. tropicalis (PTCC 5028); assay: Microdilution MIC90, strain E; type: cell-based; conditions: 24 h
[3] = test system: Asp. nidulans (PTCC 5014); assay: Microdilution MIC90, strain F; type: cell-based, Aspergillus nidulans; conditions: filamentous fungi, 48 h at 37 °C, triplicate
[4] = test system: Asp. flavus (ATCC 204304); assay: Microdilution MIC90, strain G; type: cell-based, Aspergillus flavus; conditions: filamentous fungi, 48 h at 37 °C, triplicate
[5] = test system: Asp. fumigatus (PTCC 5009); assay: Microdilution MIC90, strain H; type: cell-based; conditions: filamentous fungi, 48 h at 37 °C, triplicate
Asp. niger (PTCC 5154) = assay: Microdilution MIC90, strain I; type: cell-based, Aspergillus niger; conditions: filamentous fungi, 48 h at 37 °C, triplicate
Asp. terreus (PTCC 5023) = assay: Microdilution MIC90, strain J; type: cell-based, Aspergillus terreus; conditions: Aspergillus terreus, PTCC5023, 48 h, filamentous fungi, 48 h at 37 °C, triplicate
T. rubrum (PTCC 5143) = assay: Microdilution MIC90, strain K; type: cell-based, Trichophyton rubrum; conditions: filamentous fungi, 48 h at 37 °C, triplicate
[6] = test system: T. mentagrophytes (PTCC 5054); assay: Microdilution MIC90, strain M; type: cell-based; conditions: Trichophyton mentagrophytes, PTCC5054, 48 h
[7] = test system: T. schoenleinii (PTCC 5221); assay: Microdilution MIC90, strain N; type: cell-based; conditions: Trichophyton schoenleinii, PTCC5221, 48 h
M. canis (PTCC 5069) = assay: Microdilution MIC90, strain O; type: cell-based; conditions: Microsporum canis, PTCC5069, 48 h
C. krusei (ATCC 6258) = assay: Microdilution MIC90, strain B; type: cell-based; conditions: yeast, 24 h at 37 °C, triplicate
[8] = test system: Microsporum gypseum (PTCC 5070); assay: Microdilution MIC90, strain L; type: cell-based; conditions: filamentous fungi, 48 h at 37 °C, triplicate
[9] = Aspergillus nidulans, PTCC5014, 48 h
[10] = Aspergillus flavus, ATCC204304, 48 h
[11] = Aspergillus fumigatus, PTCC5009, 48 h
[12] = Aspergillus niger, PTCC5154, 48 h
[13] = Trichophyton rubrum, PTCC5143, 48 h

Structure (SMILES)	MIC90 (C. albicans (ATCC 10231)) [µg/mL]	MIC90 (C. glabrata (ATCC 90030)) [µg/mL]	MIC90 [1] [µg/mL]	MIC90 [2] [µg/mL]	MIC90 [3, 9] [µg/mL]	MIC90 [3] [μg·mL^–1]	MIC90 [4, 10] [µg/mL]	MIC90 [5, 11] [µg/mL]	MIC90 (Asp. niger (PTCC 5154); [12]) [µg/mL]	MIC90 (Asp. terreus (PTCC 5023)) [µg/mL]	MIC90 (T. rubrum (PTCC 5143); [13]) [µg/mL]	MIC90 [6] [µg/mL]	MIC90 [7] [µg/mL]	MIC90 (M. canis (PTCC 5069)) [µg/mL]	MIC90 (C. krusei (ATCC 6258); 24 h) [µg/mL]	MIC90 [4] [μg·mL^–1]	other results
O=C(Nc1ccc(Br)cc1)Nc1nnc(SCC(O)(Cn2cncn2)c2ccc(F)cc2F)s1 (stereo not drawn) [Compound 8d, 1-(4-Bromophenyl)-3-(5-((2-(2,4-difluorophenyl)-2-hydroxy-3-(1H-1,2,4-triazol-1-yl)propyl)thio)-1,3,4-thiadiazol-2-yl)urea]	32 (≈ 56.3 µM)	32 (≈ 56.3 µM)	8 (≈ 14.1 µM)	32 (≈ 56.3 µM)	2 to 4 (≈ 3.52 to 7.04 µM)	4	8 (≈ 14.1 µM)	64 (≈ 113 µM)	64 (≈ 113 µM)	32 (≈ 56.3 µM)	4 (≈ 7.04 µM)	32 (≈ 56.3 µM)	32 (≈ 56.3 µM)	64 (≈ 113 µM)	–	–	–
O=C(Nc1ccc(Cl)cc1)Nc1nnc(SCC(O)(Cn2cncn2)c2ccc(F)cc2F)s1 (stereo not drawn) [Compound 8a, 1-(4-Chlorophenyl)-3-(5-((2-(2,4-difluorophenyl)-2-hydroxy-3-(1H-1,2,4-triazol-1-yl)propyl)thio)-1,3,4-thiadiazol-2-yl)urea]	32 (≈ 61.1 µM)	–	8 (≈ 15.3 µM)	32 (≈ 61.1 µM)	16 (≈ 30.5 µM)	–	8 (≈ 15.3 µM)	2 to 4 (≈ 3.82 to 7.63 µM)	2 to 4 (≈ 3.82 to 7.63 µM)	8 (≈ 15.3 µM)	2 (≈ 3.82 µM)	16 (≈ 30.5 µM)	8 (≈ 15.3 µM)	2 (≈ 3.82 µM)	1 to 16 (≈ 1.91 to 30.5 µM)	–	MIC90 (C. krusei (ATCC 6258)): 1 μg·mL^–1; MIC90 [5]: 1 μg·mL^–1; MIC90 (Asp. niger (PTCC 5154)): 4 μg·mL^–1
O=C(Nc1ccc(Cl)c(Cl)c1)Nc1nnc(SCC(O)(Cn2cncn2)c2ccc(F)cc2F)s1 (stereo not drawn) [Compound 8q, 1-(3,4-Dichlorophenyl)-3-(5-((2-(2,4-difluorophenyl)-2-hydroxy-3-(1H-1,2,4-triazol-1-yl)propyl)thio)-1,3,4-thiadiazol-2-yl)urea]	32 (≈ 57.3 µM)	–	4 (≈ 7.16 µM)	16 (≈ 28.7 µM)	8 (≈ 14.3 µM)	–	8 (≈ 14.3 µM)	32 (≈ 57.3 µM)	32 (≈ 57.3 µM)	8 (≈ 14.3 µM)	2 to 4 (≈ 3.58 to 7.16 µM)	16 (≈ 28.7 µM)	16 (≈ 28.7 µM)	16 (≈ 28.7 µM)	–	–	MIC90 (T. rubrum (PTCC 5143)): 4 μg·mL^–1
O=C(Nc1cccc(Cl)c1)Nc1nnc(SCC(O)(Cn2cncn2)c2ccc(F)cc2F)s1 (stereo not drawn) [Compound 8f, 1-(3-Chlorophenyl)-3-(5-((2-(2,4-difluorophenyl)-2-hydroxy-3-(1H-1,2,4-triazol-1-yl)propyl)thio)-1,3,4-thiadiazol-2-yl)urea]	4 (≈ 7.63 µM)	–	8 (≈ 15.3 µM)	–	2 to 4 (≈ 3.82 to 7.63 µM)	4	2 to 4 (≈ 3.82 to 7.63 µM)	–	–	–	2 (≈ 3.82 µM)	–	–	–	–	4	MIC90 [8]: 4 μg·mL^–1
COc1cccc(NC(=O)Nc2nnc(SCC(O)(Cn3cncn3)c3ccc(F)cc3F)s2)c1 (stereo not drawn) [Compound 8h, 1-(5-((2-(2,4-Difluorophenyl)-2-hydroxy-3-(1H-1,2,4-triazol-1-yl)propyl)thio)-1,3,4-thiadiazol-2-yl)-3-(3-methoxyphenyl)urea]	16 (≈ 30.8 µM)	–	4 (≈ 7.7 µM)	16 (≈ 30.8 µM)	2 to 4 (≈ 3.85 to 7.7 µM)	4	8 (≈ 15.4 µM)	16 (≈ 30.8 µM)	8 (≈ 15.4 µM)	16 (≈ 30.8 µM)	2 (≈ 3.85 µM)	16 (≈ 30.8 µM)	32 (≈ 61.6 µM)	32 (≈ 61.6 µM)	8 (≈ 15.4 µM)	–	–
O=C(Nc1nnc(SCC(O)(Cn2cncn2)c2ccc(F)cc2F)s1)Nc1ccccc1Br (stereo not drawn) [Compound 8m, 1-(2-Bromophenyl)-3-(5-((2-(2,4-difluorophenyl)-2-hydroxy-3-(1H-1,2,4-triazol-1-yl)propyl)thio)-1,3,4-thiadiazol-2-yl)urea]	32 (≈ 56.3 µM)	16 (≈ 28.1 µM)	16 (≈ 28.1 µM)	8 (≈ 14.1 µM)	8 (≈ 14.1 µM)	–	8 (≈ 14.1 µM)	32 (≈ 56.3 µM)	32 (≈ 56.3 µM)	16 (≈ 28.1 µM)	2 to 4 (≈ 3.52 to 7.04 µM)	32 (≈ 56.3 µM)	64 (≈ 113 µM)	64 (≈ 113 µM)	–	–	MIC90 (T. rubrum (PTCC 5143)): 4 μg·mL^–1
Cc1cccc(NC(=O)Nc2nnc(SCC(O)(Cn3cncn3)c3ccc(F)cc3F)s2)c1 (stereo not drawn) [Compound 8i, 1-(5-((2-(2,4-Difluorophenyl)-2-hydroxy-3-(1H-1,2,4-triazol-1-yl)propyl)thio)-1,3,4-thiadiazol-2-yl)-3-(m-tolyl)urea]	8 (≈ 15.9 µM)	32 (≈ 63.5 µM)	8 (≈ 15.9 µM)	8 (≈ 15.9 µM)	2 to 4 (≈ 3.97 to 7.94 µM)	2	2 to 4 (≈ 3.97 to 7.94 µM)	8 (≈ 15.9 µM)	16 (≈ 31.8 µM)	32 (≈ 63.5 µM)	16 (≈ 31.8 µM)	16 (≈ 31.8 µM)	8 (≈ 15.9 µM)	16 (≈ 31.8 µM)	16 (≈ 31.8 µM)	2	–
Cc1ccccc1NC(=O)Nc1nnc(SCC(O)(Cn2cncn2)c2ccc(F)cc2F)s1 (stereo not drawn) [Compound 8n, 1-(5-((2-(2,4-Difluorophenyl)-2-hydroxy-3-(1H-1,2,4-triazol-1-yl)propyl)thio)-1,3,4-thiadiazol-2-yl)-3-(o-tolyl)urea]	–	–	–	–	2 to 4 (≈ 3.97 to 7.94 µM)	4	8 (≈ 15.9 µM)	–	–	–	–	–	–	–	–	–	–
O=C(Nc1cccc(C(F)(F)F)c1)Nc1nnc(SCC(O)(Cn2cncn2)c2ccc(F)cc2F)s1 (stereo not drawn) [Compound 8j, 1-(5-((2-(2,4-Difluorophenyl)-2-hydroxy-3-(1H-1,2,4-triazol-1-yl)propyl)thio)-1,3,4-thiadiazol-2-yl)-3-(3-(trifluoromethyl)phenyl)urea]	–	32 (≈ 57.4 µM)	8 (≈ 14.3 µM)	16 (≈ 28.7 µM)	16 (≈ 28.7 µM)	–	16 (≈ 28.7 µM)	16 (≈ 28.7 µM)	32 (≈ 57.4 µM)	32 (≈ 57.4 µM)	8 (≈ 14.3 µM)	16 (≈ 28.7 µM)	16 (≈ 28.7 µM)	16 (≈ 28.7 µM)	32 (≈ 57.4 µM)	–	–
O=C(Nc1nnc(SCC(O)(Cn2cncn2)c2ccc(F)cc2F)s1)Nc1ccccc1Cl (stereo not drawn) [Compound 8l, 1-(2-Chlorophenyl)-3-(5-((2-(2,4-difluorophenyl)-2-hydroxy-3-(1H-1,2,4-triazol-1-yl)propyl)thio)-1,3,4-thiadiazol-2-yl)urea]	–	–	8 (≈ 15.3 µM)	–	8 (≈ 15.3 µM)	–	2 to 4 (≈ 3.82 to 7.63 µM)	–	–	–	–	–	–	–	–	4	–
O=C(Nc1nnc(SCC(O)(Cn2cncn2)c2ccc(F)cc2F)s1)Nc1ccccc1C(F)(F)F (stereo not drawn) [Compound 8k, 1-(5-((2-(2,4-Difluorophenyl)-2-hydroxy-3-(1H-1,2,4-triazol-1-yl)propyl)thio)-1,3,4-thiadiazol-2-yl)-3-(2-(trifluoromethyl)phenyl)urea]	–	16 (≈ 28.7 µM)	4 (≈ 7.17 µM)	16 (≈ 28.7 µM)	2 to 4 (≈ 3.59 to 7.17 µM)	4	2 to 4 (≈ 3.59 to 7.17 µM)	16 (≈ 28.7 µM)	16 (≈ 28.7 µM)	16 (≈ 28.7 µM)	8 (≈ 14.3 µM)	32 (≈ 57.4 µM)	16 (≈ 28.7 µM)	16 (≈ 28.7 µM)	–	2	–
